# Laboratory results published in paper PMC4731787, “Structural basis for the recognition of two consecutive mutually interacting DPF motifs by the SGIP1 μ homology domain” (Scientific Reports, 2016).
# Where two headings read alike, the source gives them in different places. GST = glutathione S-transferase fusion tag
# T1: SGIP1 μHD (residues 552 to 828) (Homo sapiens, UniProt Q9BQI5)
# T1 construct: the SGIP1 μHD (residues 552 to 828); GST (N, cleaved yes); made in house; host or cells: Escherichia coli BL21-Gold (DE3) or Rosetta2
# T1 sequence (Q9BQI5 552-828): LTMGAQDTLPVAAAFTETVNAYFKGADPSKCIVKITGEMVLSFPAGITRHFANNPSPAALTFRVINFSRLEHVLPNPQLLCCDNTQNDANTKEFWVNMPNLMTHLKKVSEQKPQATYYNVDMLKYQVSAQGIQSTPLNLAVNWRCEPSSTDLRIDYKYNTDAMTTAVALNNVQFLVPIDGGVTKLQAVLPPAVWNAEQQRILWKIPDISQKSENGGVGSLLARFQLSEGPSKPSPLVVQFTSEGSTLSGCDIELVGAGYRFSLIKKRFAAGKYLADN
# T2: SGIP1 µ homology domain (µHD), residues 552 to 828 (human, UniProt Q9BQI5-1 552-828)
# T2 construct: pGEX-6P-1 construct cut with 3C protease; also called SGIP1 µHD; human SGIP1 µHD (aa552–828); source: E. coli BL21-Gold (DE3) or Rosetta2, purified (Glutathione Sepharose 4B, 3C protease cleavage, Superdex 200)
# T2 sequence (looked up): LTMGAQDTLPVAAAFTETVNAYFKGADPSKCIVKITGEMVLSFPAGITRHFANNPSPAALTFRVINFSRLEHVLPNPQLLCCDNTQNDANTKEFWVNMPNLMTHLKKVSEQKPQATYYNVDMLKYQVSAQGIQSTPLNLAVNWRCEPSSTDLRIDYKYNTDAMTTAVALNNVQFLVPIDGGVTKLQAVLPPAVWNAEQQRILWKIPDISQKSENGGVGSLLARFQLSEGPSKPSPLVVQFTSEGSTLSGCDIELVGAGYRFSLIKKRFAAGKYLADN
# What was measured:
# [1] = molecular target: T1, SGIP1 μHD (residues 552 to 828); assay: ITC of Eps15 fragments with the SGIP1 μHD; type: binding; conditions: for Kd: 50 mM Tris-HCl pH 8.0, 50 mM NaCl, global fit of two runs
# Experimental: For the majority of the ITC experiments, the SGIP1 μHD, its mutants, or the FCHo1 μHD, in 50 mM Tris-HCl buffer (pH 8.0) containing 50 mM NaCl, was loaded in the sample cell, in a volume of 1.42 ml, and titrated with various Eps15-derived fragments or peptides in the same buffer, with an initial 5 μl injection and subsequent 10 μl injections, for a total of 25 injections. The titrations were performed while the samples were stirred at 310 r.p.m. at 25 °C. Each injection was followed by an interval of 4 min, to allow baseline stabilization. For the other ITC experiments indicated in Supplementary Table 2, the Eps15-derived fragments or peptides in the sample cell were titrated with the SGIP1 or FCHo1 μHD. All ITC experiments were performed on a VP-ITC microcalorimeter (MicroCal, LLC) and repeated twice, and the data were processed with the program NITPIC[42]. The two data sets from each ITC experiment were analyzed by global weighted least-squares fitting with the program SEDPHAT[43]. Figures for the ITC data were created with the program GUSSI (http://biophysics.swmed.edu/MBR/software.html). To obtain the values of the traditional stoichiometric parameter N in our ITC data analyses (Supplementary Table 2), we used the values of the parameters of the incompetent fractions of proteins and ligands. […] The values of the incompetent fractions are between 0 and 1, whereas the other parameter affecting the traditional parameter N, the number of sites, was fixed as 1 and 2, for the single- and two-site models, respectively. Thus, in the two-site model, the values of N for the first and second sites are identical in our ITC data analyses (Supplementary Table 2).
# [2] = molecular target: T2, SGIP1 µ homology domain (µHD), residues …; assay: ITC; µHD, µHD mutant or α-adaptin appendage domain in the sample cell, titrated with the Eps15 fragment or peptide; 50 mM Tris-HCl (pH 8.0), 50 mM NaCl, 25 °C; VP-ITC; two data sets fitted globally (NITPIC, SEDPHAT); single-site model; conditions: both partners purified
# [3] = 25 °C, μHD in cell titrated with fragment, single-site model
# [4] = 25 °C, μHD in cell titrated with fragment, single-site model, ± 68.3% confidence interval
# [5] = μHD in cell titrated with fragment, single-site model, ± 68.3% confidence interval
# [6] = 25 °C, μHD in sample cell titrated with Eps15 fragment, single-site model, ± 68.3% confidence interval
# [7] = 25 °C, fragment in cell titrated with μHD, two-site model, first site
# [8] = 25 °C, fragment in cell titrated with μHD, two-site model, second site
Molecule,"-TΔS [1, 3] [kcal/mol]","ΔG [1, 3] [kcal/mol]","ΔH [1, 4] [kcal/mol]",further results
Ac-YDPFGGNPFKG-NH2 [Eps15-640–649D645N],-1.138,-5.642,-4.504 ± 0.155,
Ac-YDPFKGSDPFA-NH2 [Eps15-645–654],3.566,-6.344,-9.91 ± 0.683,"N (binding ratio of Eps15 fragment to μHD) [1, 5]: 0.75 ± 0.02"
Ac-YDPWGGDPFKG-NH2 [Eps15-640–649F642W],2.227,-4.965,-7.192 ± 0.527,
Ac-YEPFGGDPFKG-NH2 [Eps15-640–649D640E],-0.851,-4.759,-3.908 ± 0.595,
Ac-YKDDPFGKIDPFGG-NH2 [Eps15-632–644],-0.071,-5.584,-5.513 ± 0.12,
Ac-YKDDPFGKIDPFGGDPFKGSDPFA-NH2 [Eps15-632–654],1.453,-7.491,-8.944 ± 0.142,"N (binding ratio of Eps15 fragment to μHD) [1, 5]: 0.70 ± 0.01"
Ac-YNPFGGDPFKG-NH2 [Eps15-640–649D640N],-0.585,-5.441,-4.856 ± 0.193,
Ac-YSDPFKDDPFGKI-NH2 [Eps15-628–639],1.528,-4.882,-6.41 ± 0.646,
Ac-YSDPFKDDPFGKIDPFGG-NH2 [Eps15-628–644],1.615,-6.404,-8.019 ± 0.169,"binding to the SGIP1 μHD (in words) [1]: significantly weaker affinity than Eps15-622–637 and Eps15-640–654; N (binding ratio of Eps15 fragment to μHD) [1, 5]: 0.76 ± 0.01"
Ac-YSDPFKDDPFGKIDPFGGDPFKGSDPFA-NH2 [Eps15-628–654],1.711,-8.135,-9.846 ± 0.223,"Kd ([1]; 25 °C, μHD in sample cell titrated with Eps15 fragment, single-site model, ± 68.3% confidence interval, read-out: Kd): 1.1 ± 0.1 µM; N (binding ratio of Eps15 fragment to μHD) [1, 5]: 0.67 ± 0.01"
Ac-YSDPFVGSDPFKDDPFG-NH2 [Eps15-622–637],1.967,-7.247,-9.214 ± 0.138,"binding to the SGIP1 μHD (in words) [1]: significantly reduced affinity as compared with that of Eps15-530–896; N (binding ratio of Eps15 fragment to μHD) [1, 5]: 0.85 ± 0.01"
Ac-YSTDPFATSSTDPFSA-NH2 [Eps15-662–676],1.395,-5.327,-6.722 ± 1.053,"binding to the SGIP1 μHD (in words) [1]: weakly bound to the μHD; Strength of affinity ([1]; human SGIP1 µHD (aa552–828), Supplementary Table 3, This study): low"
"Eps15-618–648: Eps15 fragment containing the first five DPF motifs of Eps15-618–654 (DFFQSDPFVGSDPFKDDPFGKIDPFGGDPFK; UniProt P42566 618-648, looked up, fragment)",0.581,-8.722,-9.303 ± 0.257,"N (binding ratio of Eps15 fragment to μHD) [1, 5]: 0.71± 0.02"
Eps15-640–649D645E: D645E mutant of Eps15-640–649 (Ac-YDPFGGEPFKG-NH2),,,,"Kd [1, 6]: below detection limit"
Eps15-640–649F647W: F647W mutant of Eps15-640–649 (Ac-YDPFGGDPWKG-NH2),,,,"Kd [1, 6]: below detection limit"
Eps15-640–649P641L: P641L mutant of Eps15-640–649 (Ac-YDLFGGDPFKG-NH2),,,,"Kd [1, 6]: below detection limit"
Eps15-640–649P646L: P646L mutant of Eps15-640–649 (Ac-YDPFGGDLFKG-NH2),,,,"Kd [1, 6]: below detection limit"
"Eps15-643–650: Eps15 fragment, residues 643–650, 1 DPF motif (Ac-YGGDPFKGS-NH2)",,,,"Kd [1, 6]: below detection limit"
"Eps15-650–659: Eps15 fragment, residues 650–659, 1 DPF motif (Ac-YSDPFASDCFF-NH2)",,,,"Kd [1, 6]: below detection limit"
"Eps15-797–807: Eps15 fragment spanning residues 797 to 807, 2 DPF motifs (Ac-YPDPFKLNDPFQ-NH2)",,,,"binding to the SGIP1 μHD (in words) [1]: did not; Kd [1, 6]: below detection limit"
Ac-YKDDPFGKIDPFGGDPFKGSDPFA-NH2 (artificial N-terminal Tyr; source: synthetic peptide (Eurofins Genomics)) [Eps15-632–654],,,,Kd [2]: 3.2 µM; stoichiometry N [2]: 0.7
"GST-Eps15-595–660: GST-tagged Eps15 fragment, residues 595–660, 7 DPF motifs (protein, UniProt P42566 595-660, looked up, fragment) {GST}-SKEEDPFNVDSSSLTGPVADTNLDFFQSDPFVGSDPFKDDPFGKIDPFGGDPFKGSDPFASDCFFR",,,,"Kd ([1]; 25 °C, Eps15 fragment in cell titrated with SGIP1 μHD, two-site model, first (higher-affinity) site, ± 68.3% confidence interval, read-out: Kd): 0.046 ± 0.015 µM; Kd ([1]; 25 °C, Eps15 fragment in cell titrated with SGIP1 μHD, two-site model, second site, 68.3% confidence interval, read-out: Kd, second site): 16.6 ± 4.1 µM; -TΔS [1, 7]: -2.45 kcal/mol; ΔG [1, 7]: -10.012 kcal/mol; ΔH ([1]; 25 °C, fragment in cell titrated with μHD, two-site model, first site, ± 68.3% confidence interval): -7.562 ± 0.103 kcal/mol; -TΔS, second site [1, 8]: 0.328 kcal/mol; ΔG, second site [1, 8]: -6.52 kcal/mol; ΔH, second site ([1]; 25 °C, fragment in cell titrated with μHD, two-site model, second site, 68.3% confidence interval): -6.848 ± 0.772 kcal/mol; N (binding ratio of Eps15 fragment to μHD) ([1]; fragment in cell titrated with μHD, two-site model, first site (N identical for both sites), ± 68.3% confidence interval): 1.17 ± 0.02; N, second site ([1]; fragment in cell titrated with μHD, two-site model, second site (N identical for both sites), ± 68.3% confidence interval): 1.17 ± 0.02"
"GPLGSYDFFQSDPFVGSDPFKDDPFGKIDPFGGDPFK (domain or fragment, human, source: E. coli, expressed and purified in the same manner as the SGIP1 µHD) [Eps15-618–648]",,,,stoichiometry N [2]: 0.71
Ac-YSDPFKDDPFGKIDPFGG-NH2 (artificial N-terminal Tyr; source: synthetic peptide (Eurofins Genomics)) [Eps15-628–644],,,,Kd [2]: 20.2 µM; stoichiometry N [2]: 0.76
Ac-YKDDPFGKIDPFGG-NH2 (artificial N-terminal Tyr; human Eps15 residues 632-644; source: synthetic peptide (Eurofins Genomics)) [Eps15-632–644],,,,Kd [2]: 80.8 µM
"GST-Eps15-530–594: GST-tagged Eps15 fragment, residues 530–594, 0 DPF motifs (protein) {GST}-STSSSETANLNEHVEGQSNLESEPIHQESPARSSPELLPSGVTDENEVTTAVTEKVCSELDNNRH",,,,"Kd [1, 6]: below detection limit"
Ac-YSDPFKDDPFGKI-NH2 (artificial N-terminal Tyr; source: synthetic peptide (Eurofins Genomics)) [Eps15-628–639],,,,Kd [2]: 264 µM
